# Molecular target: T1, Microsomal triglyceride transfer protein (MTP) from bovine liver (Bos taurus, UniProt P55156)
# T1 construct: from tissue; host or cells: bovine liver
# T1 sequence (P55156 12-887): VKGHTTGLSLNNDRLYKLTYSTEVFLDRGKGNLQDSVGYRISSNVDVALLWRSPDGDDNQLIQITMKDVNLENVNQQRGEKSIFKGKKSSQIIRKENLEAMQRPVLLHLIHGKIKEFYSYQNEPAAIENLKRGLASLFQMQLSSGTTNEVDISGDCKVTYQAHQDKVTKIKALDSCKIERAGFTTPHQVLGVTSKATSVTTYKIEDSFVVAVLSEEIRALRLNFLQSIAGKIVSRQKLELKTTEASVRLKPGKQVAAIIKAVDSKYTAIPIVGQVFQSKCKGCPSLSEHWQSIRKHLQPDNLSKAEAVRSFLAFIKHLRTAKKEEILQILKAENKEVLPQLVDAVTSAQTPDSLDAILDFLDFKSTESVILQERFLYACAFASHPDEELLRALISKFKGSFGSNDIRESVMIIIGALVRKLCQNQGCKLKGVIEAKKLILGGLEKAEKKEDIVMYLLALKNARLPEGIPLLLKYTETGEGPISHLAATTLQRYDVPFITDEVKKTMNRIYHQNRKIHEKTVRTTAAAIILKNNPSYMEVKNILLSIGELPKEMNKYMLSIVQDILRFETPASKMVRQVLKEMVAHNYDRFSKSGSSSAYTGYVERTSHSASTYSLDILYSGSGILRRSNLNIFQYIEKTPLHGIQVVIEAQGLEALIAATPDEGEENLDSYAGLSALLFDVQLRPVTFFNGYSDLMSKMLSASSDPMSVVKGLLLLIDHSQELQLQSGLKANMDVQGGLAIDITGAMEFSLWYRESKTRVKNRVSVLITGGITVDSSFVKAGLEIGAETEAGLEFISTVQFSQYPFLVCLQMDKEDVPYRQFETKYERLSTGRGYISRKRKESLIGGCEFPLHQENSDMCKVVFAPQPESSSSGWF
# T1 sequence (P05307 21-510 partner): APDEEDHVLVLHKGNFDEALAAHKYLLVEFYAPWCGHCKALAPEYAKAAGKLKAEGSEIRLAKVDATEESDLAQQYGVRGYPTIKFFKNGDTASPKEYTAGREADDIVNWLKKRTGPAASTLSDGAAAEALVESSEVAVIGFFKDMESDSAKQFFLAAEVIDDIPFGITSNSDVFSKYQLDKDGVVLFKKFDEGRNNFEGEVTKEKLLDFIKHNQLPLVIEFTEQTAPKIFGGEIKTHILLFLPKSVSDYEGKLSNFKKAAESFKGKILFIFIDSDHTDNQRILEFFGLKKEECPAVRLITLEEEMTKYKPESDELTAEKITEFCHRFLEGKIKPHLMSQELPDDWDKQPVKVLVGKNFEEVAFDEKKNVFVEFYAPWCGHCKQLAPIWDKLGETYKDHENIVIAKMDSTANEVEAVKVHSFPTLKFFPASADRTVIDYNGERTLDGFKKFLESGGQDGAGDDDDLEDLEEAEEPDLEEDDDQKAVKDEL
# Test: Test Example 1: inhibition of interliposomal triglyceride (TG) transfer activity by MTP (also used for metabolites in Test Example 8)
# Type: biochemical
# Conditions: MTP-mediated 14C-triolein transfer between liposomes, 37° C., one hour; read-out: Test Example 1 MTP inhibition IC50
# Procedure, shortened: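 Partially purified bovine liver MTP (DEAE chromatography) incubated 1 h at 37 °C, pH 7.4, with ^14C-triolein-labelled donor SUVs and unlabelled acceptor SUVs plus compound in DMSO. Acceptor radioactivity, blank-corrected, gave % inhibition versus DMSO; IC50 derived. Metabolites tested likewise.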
row,SMILES,IC50 [nM]
1,"CCNC(=O)C(COC(=O)Cc1ccc(NC(=O)c2ccccc2-c2ccc(C(F)(F)F)cc2)c(C(=O)N(C)C)c1)(C(=O)NCC)c1ccccc1 [Example 2, {3-Dimethylcarbamoyl-4-[(4′-trifluoromethylbiphenyl-2-carbonyl)amino]phenyl}acetic acid 2,2-bisethylcarbamoyl-2-phenylethyl ester]",0.62
2,COC(=O)C(COC(=O)Cc1ccc(NC(=O)c2ccccc2-c2ccc(C(F)(F)F)cc2)cc1)(C(=O)OC)c1ccccc1 [Example 1-13],5.8
3,"CCNC(=O)C(COC(=O)Cc1ccc(NC(=O)c2ccccc2-c2ccc(C(F)(F)F)cc2)c(CC)c1)(C(=O)NCC)c1ccccc1 [Example 1-5, {3-Ethyl-4-[(4′-trifluoromethylbiphenyl-2-carbonyl)amino]phenyl}acetic acid 2,2-bisethylcarbamoyl-2-phenylethyl ester]",0.66
4,CCCNC(=O)C(COC(=O)Cc1ccc(NC(=O)c2ccccc2-c2ccc(C(F)(F)F)cc2)cc1)(C(=O)NCCC)c1ccccc1 [Example 1-35],1
5,"CCNC(=O)C(COC(=O)Cc1ccc(NC(=O)c2ccccc2-c2ccc(C(F)(F)F)cc2)cc1)(C(=O)NCC)c1ccccc1 [Example 1, 4-[(4′-Trifluoromethylbiphenyl-2-carbonyl)amino]phenyl-acetic acid 2,2-bisethylcarbamoyl-2-phenylethyl ester]",0.6
6,"CCOC(=O)C(COC(=O)Cc1ccc(OC(=O)c2ccccc2-c2ccc(C(F)(F)F)cc2)cc1)(C(=O)OCC)c1ccccc1 [Example 1-2, 2-Phenyl-2-{2-[4-(4′-trifluoromethylbiphenyl-2-carbonyloxy)phenyl]acetoxymethyl}malonic acid diethyl ester]",42
7,O=C(Cc1ccc(NC(=O)c2ccccc2-c2ccc(C(F)(F)F)cc2)cc1)OCC1(C(=O)NCC(F)(F)F)c2ccccc2-c2ccccc21 [Example 1-6],1.2
8,O=C(Cc1ccc(NC(=O)c2ccccc2-c2ccc(C(F)(F)F)cc2)cc1)OCC(C(=O)NCC(F)(F)F)(C(=O)NCC(F)(F)F)c1ccccc1 [Example 1-12],7.6

# Next, values leading:
row,IC50 [nM],SMILES
1,1.4,CCOC(=O)C(COC(=O)Cc1ccc(NC(=O)c2ccccc2-c2ccc(C(F)(F)F)cc2)c(C(=O)N2CCCC2)c1)(C(=O)OCC)c1ccccc1 [Example 2-22]
2,2.1,CCNC(=O)C(COC(=O)Cc1ccc(NC(=O)c2ccccc2-c2ccc(C(F)(F)F)cc2)c(C(=O)NC)c1)(C(=O)NCC)c1ccccc1 [Example 2-3]
3,2.7,CCNC(=O)C(COC(=O)Cc1ccc(NC(=O)c2ccccc2-c2ccc(C(F)(F)F)cc2)c(OC(C)C)c1)(C(=O)NCC)c1ccccc1 [Example 3-10]
4,0.4,CCNC(=O)C(COC(=O)Cc1ccc(NC(=O)c2ccccc2-c2ccc(C(F)(F)F)cc2)c(OC)c1)(C(=O)NCC)c1ccccc1 [Example 3-3]
5,1.1,CCNC(=O)C(CCCOC(=O)Cc1ccc(NC(=O)c2ccccc2-c2ccc(C(F)(F)F)cc2)c(C(=O)N(C)C)c1)(C(=O)NCC)c1ccccc1 [Example 2-7]
6,5,CCNC(=O)C(CCOC(=O)Cc1ccc(NC(=O)c2ccccc2-c2ccc(C(F)(F)F)cc2)c(OC)c1)(C(=O)NCC)c1ccccc1 [Example 3-6]
7,0.74,COC(=O)C(COC(=O)Cc1ccc(NC(=O)c2ccccc2-c2ccc(C(F)(F)F)cc2)c(C(=O)N(C)C)c1)(C(=O)OC)c1ccccc1 [Example 2-39]
8,3.7,CCNC(=O)C(CCOC(=O)Cc1ccc(NC(=O)c2ccccc2-c2ccc(C(F)(F)F)cc2)c(OCC)c1)(C(=O)NCC)c1ccccc1 [Example 3-8]
9,0.94,CCNC(=O)C(CCOC(=O)Cc1ccc(NC(=O)c2ccccc2-c2ccc(C(F)(F)F)cc2)c(C(=O)N(C)C)c1)(C(=O)NCC)c1ccccc1 [Example 2-4]
10,1.4,CCOC(=O)C(COC(=O)Cc1ccc(NC(=O)c2ccccc2-c2ccc(C(F)(F)F)cc2)c(C(=O)N(C)C)c1)(C(=O)OCC)c1ccccc1 [Example 2-5]
11,1.4,CCCNC(=O)C(COC(=O)Cc1ccc(NC(=O)c2ccccc2-c2ccc(C(F)(F)F)cc2)c(C(=O)N(C)C)c1)(C(=O)NCCC)c1ccccc1 [Example 2-2]

# From patent US7625948B2, “Ester compound and medicinal use thereof” (Japan Tobacco Inc., priority 2002, dated 2009)
